# Data taken from EP0908457B1, “3-(1,2-benzisothiazol- and isoxazol-5-Y1)-2,4(1H,3H)-pyrimidinedione or thione and 3-(1,2-benzisothiazol- and isoxazol-5-y1)-4(3H)-pyrimidinone or thione herbicidal agents” (BASF AKTIENGESELLSCHAFT, priority 1997, dated 1999).
# Tests used:
# [1] = system: Echinochloa oryzoides (Ard.) Fritsch.; test: Preemergence weed control under flooded paddy conditions, ECHORC (Watergrass (Calif.)); type: in vivo; conditions: flooded paddy, rated three to four weeks after treatment; on herbicidal effect rating, ECHORC: meaning of each grade not given here
# Cyperus iria = test: Preemergence weed control under flooded paddy conditions, CYPIR (Rice Flatsedge); type: in vivo; conditions: flooded paddy, rated three to four weeks after treatment; on herbicidal effect rating, CYPIR: meaning of each grade not given here
# [2] = system: Cyperus serotinus, Rottb.; test: Preemergence weed control under flooded paddy conditions, CYPSE (Flatsedge); type: in vivo; conditions: rated three to four weeks after treatment; on herbicidal effect rating, CYPSE: meaning of each grade not given here
# [3] = system: Monochoria vaginalis, Presl.; test: Preemergence weed control under flooded paddy conditions, MOOVA (Monochoria); type: in vivo; conditions: flooded paddy, rated three to four weeks after treatment; on herbicidal effect rating, MOOVA: meaning of each grade not given here
# Sagittaria pygmaea, L. = test: Preemergence weed control under flooded paddy conditions, SAGPY (Arrowhead (Pygmaea)); type: in vivo; conditions: flooded paddy, rated three to four weeks after treatment; on herbicidal effect rating, SAGPY: meaning of each grade not given here
# [4] = system: Oryza sativa, (L.) Tebonnet; test: Rice tolerance to post-transplant applications under flooded paddy conditions (Example 187), ORYSAT (Rice, Tebonnet); conditions: rated three to four weeks after treatment; on herbicidal effect rating ORYSAT: meaning of each grade not given here
# [5] = Rate 0.0320 kg/ha, preemergence
# [6] = Rate 0.0620 kg/ha, preemergence
# [7] = Rate 0.1250 kg/ha, preemergence
# [8] = Rate 0.2500 kg/ha, preemergence
# [9] = 0.0313 kg/ha, preemergence weeds
# [10] = 0.0625 kg/ha, preemergence weeds
# [11] = 0.1250 kg/ha, preemergence weeds
# [12] = 0.2500 kg/ha, preemergence weeds
compound,measurement,setting,value
"COC(C)c1nsc2ccc(-n3c(=O)cc(C(F)(F)F)n(C)c3=O)cc12 (stereo not drawn) [Example 350, 2,4(1H,3H)-Pyrimidinedione, 3-[3-(1-methoxyethyl)-1,2-benzisothiazol-5-yl]-1-methyl-6-(trifluoromethyl)-]","herbicidal effect rating, ECHORC",[1]; [5],6.0
same,"herbicidal effect rating, ECHORC",[1]; [6],7.5
same,"herbicidal effect rating, ECHORC",[1]; [7],8.0
same,"herbicidal effect rating, ECHORC",[1]; [8],9.0
same,"herbicidal effect rating, CYPIR",Cyperus iria; [5],4.0
same,"herbicidal effect rating, CYPIR",Cyperus iria; [6],5.0
same,"herbicidal effect rating, CYPIR",Cyperus iria; [7],9.0
same,"herbicidal effect rating, CYPIR",Cyperus iria; [8],9.0
same,"herbicidal effect rating, CYPSE",[2]; [5],7.5
same,"herbicidal effect rating, CYPSE",[2]; [6],8.5
same,"herbicidal effect rating, CYPSE",[2]; [7],8.5
same,"herbicidal effect rating, CYPSE",[2]; [8],9.0
same,"herbicidal effect rating, MOOVA",[3]; [5],9.0
same,"herbicidal effect rating, MOOVA",[3]; [6],9.0
same,"herbicidal effect rating, MOOVA",[3]; [7],9.0
same,"herbicidal effect rating, MOOVA",[3]; [8],9.0
same,"herbicidal effect rating, SAGPY","Sagittaria pygmaea, L.; [5]",5.5
same,"herbicidal effect rating, SAGPY","Sagittaria pygmaea, L.; [6]",7.0
same,"herbicidal effect rating, SAGPY","Sagittaria pygmaea, L.; [7]",7.5
same,"herbicidal effect rating, SAGPY","Sagittaria pygmaea, L.; [8]",9.0
same,herbicidal effect rating ORYSAT,[4]; Rate 0.0320 kg/ha,9.0
same,herbicidal effect rating ORYSAT,[4]; Rate 0.0620 kg/ha,9.0
same,herbicidal effect rating ORYSAT,[4]; Rate 0.1250 kg/ha,9.0
same,herbicidal effect rating ORYSAT,[4]; Rate 0.2500 kg/ha,9.0
"CC(C)=CCOC(=O)COc1ccc(C)cc1-c1nsc2ccc(-n3c(=O)cc(C(F)(F)F)n(C)c3=O)cc12 [Example 187, 3-Methyl-2-butenyl {{2-{5-[3,6-dihydro-3-methyl-2,6-dioxo-4-(trifluoromethyl)-1(2H)-pyrimidinyl]-1,2-benzisothiazol-3-yl}-p-tolyl}oxy}acetate]","herbicidal effect rating, ECHORC",[1]; [9],0.0
same,"herbicidal effect rating, ECHORC",[1]; [10],2.0
same,"herbicidal effect rating, ECHORC",[1]; [11],6.0
same,"herbicidal effect rating, ECHORC",[1]; [12],9.0
same,"herbicidal effect rating, CYPIR",Cyperus iria; [9],0.0
same,"herbicidal effect rating, CYPIR",Cyperus iria; [10],0.0
same,"herbicidal effect rating, CYPIR",Cyperus iria; [11],2.0
same,"herbicidal effect rating, CYPIR",Cyperus iria; [12],4.0
same,"herbicidal effect rating, CYPSE",[2]; [9],0.0
same,"herbicidal effect rating, CYPSE",[2]; [10],0.0
same,"herbicidal effect rating, CYPSE",[2]; [11],0.0
same,"herbicidal effect rating, CYPSE",[2]; [12],0.0
same,"herbicidal effect rating, MOOVA",[3]; [9],8.0
same,"herbicidal effect rating, MOOVA",[3]; [10],9.0
same,"herbicidal effect rating, MOOVA",[3]; [11],9.0
same,"herbicidal effect rating, MOOVA",[3]; [12],9.0
same,"herbicidal effect rating, SAGPY","Sagittaria pygmaea, L.; [9]",0.0
same,"herbicidal effect rating, SAGPY","Sagittaria pygmaea, L.; [10]",0.0
same,"herbicidal effect rating, SAGPY","Sagittaria pygmaea, L.; [11]",0.0
same,"herbicidal effect rating, SAGPY","Sagittaria pygmaea, L.; [12]",0.0
same,"herbicidal effect rating, ORYSAT (rice tolerance)",[4]; 0.0313 kg/ha,2.0
same,"herbicidal effect rating, ORYSAT (rice tolerance)",[4]; 0.0625 kg/ha,3.0
same,"herbicidal effect rating, ORYSAT (rice tolerance)",[4]; 0.1250 kg/ha,3.0
same,"herbicidal effect rating, ORYSAT (rice tolerance)",[4]; 0.2500 kg/ha,6.0
"Cc1ccc(OCC#N)c(-c2nsc3ccc(-n4c(=O)cc(C(F)(F)F)n(C)c4=O)cc23)c1 [Example 57, 3-{3-[6-(Cyanomethoxy)-m-tolyl]-1,2-benzisothiazol-5-yl}-1-methyl-6-(trifluoromethyl)-2,4(1H,3H)-pyrimidinedione]","herbicidal effect rating, ECHORC","[1]; 0.0313 kg/ha, preemergence",9.0
same,"herbicidal effect rating, ECHORC","[1]; 0.0625 kg/ha, preemergence",9.0
same,"herbicidal effect rating, ECHORC","[1]; 0.1250 kg/ha, preemergence",9.0
same,"herbicidal effect rating, ECHORC","[1]; 0.2500 kg/ha, preemergence",9.0
same,"herbicidal effect rating, CYPIR","Cyperus iria; 0.0313 kg/ha, preemergence",9.0
same,"herbicidal effect rating, CYPIR","Cyperus iria; 0.0625 kg/ha, preemergence",9.0
same,"herbicidal effect rating, CYPIR","Cyperus iria; 0.1250 kg/ha, preemergence",9.0
same,"herbicidal effect rating, CYPIR","Cyperus iria; 0.2500 kg/ha, preemergence",9.0
same,"herbicidal effect rating, CYPSE","[2]; 0.0313 kg/ha, preemergence",0.0
same,"herbicidal effect rating, CYPSE","[2]; 0.0625 kg/ha, preemergence",0.0
same,"herbicidal effect rating, CYPSE","[2]; 0.1250 kg/ha, preemergence",0.0
same,"herbicidal effect rating, CYPSE","[2]; 0.2500 kg/ha, preemergence",0.0
same,"herbicidal effect rating, MOOVA","[3]; 0.0313 kg/ha, preemergence",9.0
same,"herbicidal effect rating, MOOVA","[3]; 0.0625 kg/ha, preemergence",9.0
same,"herbicidal effect rating, MOOVA","[3]; 0.1250 kg/ha, preemergence",9.0
same,"herbicidal effect rating, MOOVA","[3]; 0.2500 kg/ha, preemergence",9.0
same,"herbicidal effect rating, SAGPY","Sagittaria pygmaea, L.; 0.0313 kg/ha, preemergence",0.0
same,"herbicidal effect rating, SAGPY","Sagittaria pygmaea, L.; 0.0625 kg/ha, preemergence",0.0
same,"herbicidal effect rating, SAGPY","Sagittaria pygmaea, L.; 0.1250 kg/ha, preemergence",0.0
same,"herbicidal effect rating, SAGPY","Sagittaria pygmaea, L.; 0.2500 kg/ha, preemergence",0.0
same,"herbicidal effect rating, ORYSAT (rice tolerance)",[4]; 0.0313 kg/ha,3.0
same,"herbicidal effect rating, ORYSAT (rice tolerance)",[4]; 0.0625 kg/ha,4.0
same,"herbicidal effect rating, ORYSAT (rice tolerance)",[4]; 0.1250 kg/ha,5.0
same,"herbicidal effect rating, ORYSAT (rice tolerance)",[4]; 0.2500 kg/ha,6.0
"CCOc1ccc2sc(S(=O)(=O)NC(=O)COc3ccc(C)cc3-c3nsc4ccc(-n5c(=O)cc(C(F)(F)F)n(C)c5=O)cc34)nc2c1 [Example 289, Acetamide, 2-{{2-{5-[3,6-dihydro-3-methyl-2,6-dioxo-4-(trifluoromethyl)-1(2H)-pyrimidinyl]-1,2-benzisothiazol-3-yl}-p-tolyl}oxy}-N-[(5-ethoxybenzothiazol-2-yl)sulfonyl]-]",ECHORC herbicidal effect rating,[1]; [5],0.0
same,ECHORC herbicidal effect rating,[1]; [6],2.0
same,ECHORC herbicidal effect rating,[1]; [7],3.0
same,ECHORC herbicidal effect rating,[1]; [8],4.0
same,CYPIR herbicidal effect rating,Cyperus iria; [5],0.0
same,CYPIR herbicidal effect rating,Cyperus iria; [6],0.0
same,CYPIR herbicidal effect rating,Cyperus iria; [7],9.0
same,CYPIR herbicidal effect rating,Cyperus iria; [8],9.0
same,CYPSE herbicidal effect rating,[2]; [5],0.0
same,CYPSE herbicidal effect rating,[2]; [6],0.0
same,CYPSE herbicidal effect rating,[2]; [7],0.0
same,CYPSE herbicidal effect rating,[2]; [8],0.0
same,MOOVA herbicidal effect rating,[3]; [5],0.0
same,MOOVA herbicidal effect rating,[3]; [6],0.0
same,MOOVA herbicidal effect rating,[3]; [7],9.0
same,MOOVA herbicidal effect rating,[3]; [8],9.0
same,SAGPY herbicidal effect rating,"Sagittaria pygmaea, L.; [5]",0.0
same,SAGPY herbicidal effect rating,"Sagittaria pygmaea, L.; [6]",0.0
same,SAGPY herbicidal effect rating,"Sagittaria pygmaea, L.; [7]",0.0
same,SAGPY herbicidal effect rating,"Sagittaria pygmaea, L.; [8]",0.0
same,ORYSAT herbicidal effect rating,[4]; Rate 0.0320 kg/ha,0.0
same,ORYSAT herbicidal effect rating,[4]; Rate 0.0620 kg/ha,0.0
same,ORYSAT herbicidal effect rating,[4]; Rate 0.1250 kg/ha,0.0
same,ORYSAT herbicidal effect rating,[4]; Rate 0.2500 kg/ha,0.0
"COc1noc2ccc(-n3c(=O)cc(C(F)(F)F)n(C)c3=O)cc12 [Example 42, 3-(3-Methoxy-1,2-benzisoxazol-5-yl)-1-methyl-6-(trifluoromethyl)-2,4(1H,3H)-pyrimidinedione]","herbicidal effect rating, ECHORC","[1]; 0.0313 kg/ha, preemergence",0.0
same,"herbicidal effect rating, ECHORC","[1]; 0.0625 kg/ha, preemergence",0.0
same,"herbicidal effect rating, ECHORC","[1]; 0.1250 kg/ha, preemergence",0.0
same,"herbicidal effect rating, ECHORC","[1]; 0.2500 kg/ha, preemergence",0.0
same,"herbicidal effect rating, CYPIR","Cyperus iria; 0.0313 kg/ha, preemergence",0.0
same,"herbicidal effect rating, CYPIR","Cyperus iria; 0.0625 kg/ha, preemergence",0.0
same,"herbicidal effect rating, CYPIR","Cyperus iria; 0.1250 kg/ha, preemergence",0.0
same,"herbicidal effect rating, CYPIR","Cyperus iria; 0.2500 kg/ha, preemergence",0.0
same,"herbicidal effect rating, CYPSE","[2]; 0.0313 kg/ha, preemergence",0.0
same,"herbicidal effect rating, CYPSE","[2]; 0.0625 kg/ha, preemergence",0.0
same,"herbicidal effect rating, CYPSE","[2]; 0.1250 kg/ha, preemergence",0.0
same,"herbicidal effect rating, CYPSE","[2]; 0.2500 kg/ha, preemergence",0.0
same,"herbicidal effect rating, MOOVA","[3]; 0.0313 kg/ha, preemergence",0.0
same,"herbicidal effect rating, MOOVA","[3]; 0.0625 kg/ha, preemergence",0.0
same,"herbicidal effect rating, MOOVA","[3]; 0.1250 kg/ha, preemergence",0.0
same,"herbicidal effect rating, MOOVA","[3]; 0.2500 kg/ha, preemergence",0.0
same,"herbicidal effect rating, SAGPY","Sagittaria pygmaea, L.; 0.0313 kg/ha, preemergence",0.0
same,"herbicidal effect rating, SAGPY","Sagittaria pygmaea, L.; 0.0625 kg/ha, preemergence",0.0
same,"herbicidal effect rating, SAGPY","Sagittaria pygmaea, L.; 0.1250 kg/ha, preemergence",0.0
same,"herbicidal effect rating, SAGPY","Sagittaria pygmaea, L.; 0.2500 kg/ha, preemergence",0.0
same,"herbicidal effect rating, ORYSAT (rice tolerance)",[4]; 0.0313 kg/ha,0.0
same,"herbicidal effect rating, ORYSAT (rice tolerance)",[4]; 0.0625 kg/ha,0.0
same,"herbicidal effect rating, ORYSAT (rice tolerance)",[4]; 0.1250 kg/ha,0.0
same,"herbicidal effect rating, ORYSAT (rice tolerance)",[4]; 0.2500 kg/ha,0.0
